{
  "source": "patent US11339203B2",
  "about": "“Antitumor peptide and use thereof” (TOAGOSEI CO., LTD., priority 2018, dated 2022)",
  "tested_on": "human prostate cancer cell line (PC-3)",
  "type": "cell-based",
  "settings": "48 h",
  "procedure": "CAKI2 cells were cultured and adjusted to cell count of about 5×10^3 cells per single well of 96-well plate. The amount of medium at this time was made to be 100 μL per well. Next, the 96-well plate was arranged in a CO2 incubator and incubated for about 1 day (21 hours to 24 hours) under conditions of 37° C. and 5% CO2. […] Cell viability (%) was determined in the manner described below. […] Following completion of incubation, cell viability (%) was evaluated using a colorimetric method consisting of recovering the cell culture liquid containing the above-mentioned reagent together with measuring absorbance at wavelength of 450 nm based on reduction of tetrazolium salt (value corrected for absorbance at a wavelength of 650 nm: A450 to A650). More specifically, the cell viability (%) of each test cell line was calculated from the measured absorbance as a relative value based on cell viability of 100% for the measured value (measured absorbance) of the comparison test group that underwent incubation for 48 hours as described above in only medium not containing peptide. Antitumor activity was evaluated for Sample 2 in above-mentioned Test Example 1 targeted at multiple types of human-derived cultured tumor cells. […]",
  "note": "Like-named read-outs stand apart in the source and are kept apart here. Where no end group is shown, it is not given here.",
  "data": [
    {"substance": "FIGNLALSDLLAGVAYTANLLLKKRTLRKNDRKKR-NH2 [Sample 2]", "values": [
      {"measurement": "Cell Viability (%)", "setting": "12.5 μM", "value": 25.6, "unit": "%"},
      {"measurement": "Cell Viability (%)", "setting": "25 μM", "value": 2.5, "unit": "%"}
    ]}
  ]
}
